Assay results taken from article PMC6006164, “Natural cyclopeptide RA-V inhibits the NF-κB signaling pathway by targeting TAK1” (Cell Death & Disease, 2018).

Biological target: T1, TAK1–TAB1 interaction (Homo sapiens, UniProt O43318+Q15750)
T1 construct: expressed in transfected cells; host or cells: HEK293T
T1 sequence (O43318 1-579 isoform O43318-2): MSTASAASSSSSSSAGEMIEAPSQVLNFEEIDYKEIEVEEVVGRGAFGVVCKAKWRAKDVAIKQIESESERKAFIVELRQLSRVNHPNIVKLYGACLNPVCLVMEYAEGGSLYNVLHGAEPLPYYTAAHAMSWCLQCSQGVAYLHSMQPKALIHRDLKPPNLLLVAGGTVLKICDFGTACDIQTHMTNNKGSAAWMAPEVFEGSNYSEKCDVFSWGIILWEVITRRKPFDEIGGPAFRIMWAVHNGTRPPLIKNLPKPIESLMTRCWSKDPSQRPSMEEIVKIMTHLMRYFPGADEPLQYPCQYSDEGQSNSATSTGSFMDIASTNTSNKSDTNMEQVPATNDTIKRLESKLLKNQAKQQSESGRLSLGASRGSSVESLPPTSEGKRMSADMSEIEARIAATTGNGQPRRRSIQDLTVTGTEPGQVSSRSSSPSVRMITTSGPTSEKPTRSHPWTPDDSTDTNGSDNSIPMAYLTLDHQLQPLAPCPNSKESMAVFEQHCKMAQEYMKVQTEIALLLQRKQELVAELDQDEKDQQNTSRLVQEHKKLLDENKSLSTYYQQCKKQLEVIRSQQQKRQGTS
T1 sequence (Q15750 1-504 partner): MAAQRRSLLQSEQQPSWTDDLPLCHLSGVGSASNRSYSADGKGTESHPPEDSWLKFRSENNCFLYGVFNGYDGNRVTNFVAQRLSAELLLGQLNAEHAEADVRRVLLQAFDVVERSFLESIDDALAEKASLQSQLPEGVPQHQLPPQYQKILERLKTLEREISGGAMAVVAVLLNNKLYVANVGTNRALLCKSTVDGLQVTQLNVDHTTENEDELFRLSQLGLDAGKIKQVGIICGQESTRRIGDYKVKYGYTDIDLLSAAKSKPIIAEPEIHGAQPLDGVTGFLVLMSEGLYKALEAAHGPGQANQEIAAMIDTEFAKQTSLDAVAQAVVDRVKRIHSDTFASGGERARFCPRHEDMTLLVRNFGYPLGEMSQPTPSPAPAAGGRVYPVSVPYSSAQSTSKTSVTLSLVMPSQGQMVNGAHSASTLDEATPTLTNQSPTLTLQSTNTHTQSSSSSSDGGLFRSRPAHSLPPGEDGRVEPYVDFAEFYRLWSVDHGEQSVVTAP
Assay: Co-immunoprecipitation of TAK1 and TAB1
Format: cell-based
Conditions: HEK293T, Flag-TAK1 and HA-TAB1; RA-V 800 nM 6 h
Procedure: Fig. 4 RA-V blocks the interaction between TAK1 and TAB2. a RA-V blocked the exogenous TAK1–TAB2 interaction. HEK293T cells were transfected with Flag-TAK1 and HA-TAB2 for 24 h and then incubated with various concentrations of RA-V for 6 h. […] HEK293T cells were transfected with Flag-TAK1 and HA-TRAF6 or HA-TAB1 for 24 h and then incubated with RA-V (800 nM) for 6 h. The cell lysates were immunoprecipitated with HA antibody, and immunoblots were performed with the indicated antibodies. d RA-V blocked the endogenous TAK1–TAB2 interaction. HEK293T (left) or RAW264.7 (right) cells were incubated with 800 nM RA-V for 6 h and stimulated with 10 ng/mL TNF-α for 2 h or 1 μg/mL LPS for 3 h, respectively. The cell lysates were immunoprecipitated with TAK1 antibody or control IgG and then immunoblotted with the indicated antibodies. Each experiment was repeated at least three times
The cell lysates were prepared using radioimmunoprecipitation (RIPA) buffer containing 50 mM Tris-HCl pH 7.4, 150 mM NaCl, 1 mM ethylenediaminetetraacetic acid, 1% Triton X-100, 0.5% deoxycholate, and 0.1% sodium dodecyl sulfate, to which protease inhibitors (Roche) were added. The lysates were incubated with the indicated antibodies before adding 20 μL of Protein A/G agarose for 2 h. After four washes with the same buffer, the immunoprecipitates were boiled in 2 × SDS loading buffer.

## RA-V
  TAK1–TAB1 interaction: does not disrupt
